Tests used:
[1] = molecular target: Adenosine receptors; A1 & A3 (Rattus norvegicus) (UniProt P25099+P28647); test: Selectivity for binding affinity towards A1 adenosine receptor in rat brain membrane and rat A3 receptor expressed in CHO cells.; assay type: cell-based
Adenosine receptor A1 = molecular target: T1, Adenosine receptor A1 (Rattus norvegicus, UniProt P25099)
T1 sequence (P25099 whole entry): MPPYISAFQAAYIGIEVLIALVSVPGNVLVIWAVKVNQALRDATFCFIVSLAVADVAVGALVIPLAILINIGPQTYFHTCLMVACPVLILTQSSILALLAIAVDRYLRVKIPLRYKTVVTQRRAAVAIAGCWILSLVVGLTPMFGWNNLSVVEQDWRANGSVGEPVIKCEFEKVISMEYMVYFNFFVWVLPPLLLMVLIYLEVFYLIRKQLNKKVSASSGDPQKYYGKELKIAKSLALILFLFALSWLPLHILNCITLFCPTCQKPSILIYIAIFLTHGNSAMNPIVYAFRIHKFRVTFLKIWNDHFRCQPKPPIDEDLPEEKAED
Description: Binding affinity against adenosine A1 receptor in rat brain membranes using [3H]R-PIA.

Adenosine receptor A3 = molecular target: T2, Adenosine receptor A3 (Rattus norvegicus, UniProt P28647); test: biochemical
T2 sequence (P28647 whole entry): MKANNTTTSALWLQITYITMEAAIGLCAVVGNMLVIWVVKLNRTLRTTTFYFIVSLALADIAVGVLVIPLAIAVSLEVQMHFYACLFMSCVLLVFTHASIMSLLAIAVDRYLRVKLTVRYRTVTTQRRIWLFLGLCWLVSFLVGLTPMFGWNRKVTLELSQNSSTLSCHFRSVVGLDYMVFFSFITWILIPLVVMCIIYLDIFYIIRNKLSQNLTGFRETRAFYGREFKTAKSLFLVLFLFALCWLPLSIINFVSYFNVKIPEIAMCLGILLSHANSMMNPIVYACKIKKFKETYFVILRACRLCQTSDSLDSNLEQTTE
Description: Binding affinity against rat adenosine A3 receptor expressed in CHO cells using [125I]-.

Adenosine receptor A2a = Adenosine receptor A2a (Rattus norvegicus, UniProt P30543)
Description: Binding affinity against adenosine A2A receptor in rat striatal membranes using [3H]-CGS- 21680.

[2] = molecular target: Adenosine receptor A2a (Rattus norvegicus) (UniProt P30543); test: Binding affinity against Adenosine A2A receptor of rat striatal membranes using [3H]- CGS 21680 at 10E-4; conditions: concentration not given here
Sequence of Adenosine receptor A2a (Rattus norvegicus) (P30543 whole entry): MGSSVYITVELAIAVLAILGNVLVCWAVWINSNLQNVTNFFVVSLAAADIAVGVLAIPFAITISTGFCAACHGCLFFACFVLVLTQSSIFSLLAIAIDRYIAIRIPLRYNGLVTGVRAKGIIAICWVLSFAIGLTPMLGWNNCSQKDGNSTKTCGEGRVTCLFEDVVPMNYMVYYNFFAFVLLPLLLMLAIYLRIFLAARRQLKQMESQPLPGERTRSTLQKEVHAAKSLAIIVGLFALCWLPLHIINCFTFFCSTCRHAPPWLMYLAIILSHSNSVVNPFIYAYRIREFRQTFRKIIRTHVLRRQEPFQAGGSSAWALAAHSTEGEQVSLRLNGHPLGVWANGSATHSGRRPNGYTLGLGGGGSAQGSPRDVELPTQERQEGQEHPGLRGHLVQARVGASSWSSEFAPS

Sequence of Adenosine receptor A2a (P30543 whole entry): as above

| Ratio [1] | Ki (Adenosine receptor A1) [nM] | Ki (Adenosine receptor A3) [nM] | Ki (Adenosine receptor A2a) [nM] | inhibition [2] [%] | SMILES |
| --- | --- | --- | --- | --- | --- |
| 0.23 | 75.1 | 324 | – | 12 | CCNC(=O)[C@H]1O[C@@H](n2cnc3c(NC(=O)Nc4ccc(OC)cc4)nc(C#CC(O)c4ccccc4)nc32)[C@H](O)[C@@H]1O (stereo partly specified) |
| 0.12 | 29.4 | 251 | 260 | – | CCNC(=O)[C@H]1O[C@@H](n2cnc3c(NC(=O)Nc4ccc(OC)cc4)nc(I)nc32)[C@H](O)[C@@H]1O |
| 2 | 428 | 211 | 2330 | – | CCCCC#Cc1nc(NC(=O)Nc2ccc(OC)cc2)c2ncn([C@@H]3O[C@H](C(=O)NCC)[C@@H](O)[C@H]3O)c2n1 |
| 0.1 | – | – | – | – | CCNC(=O)[C@H]1O[C@@H](n2cnc3c(NC(=O)c4ccc(OC)cc4)ncnc32)[C@H](O)[C@@H]1O |
| 160 | – | 89.5 | 1670 | – | CCNC(=O)[C@H]1O[C@@H](n2cnc3c(NC(=O)Nc4ccc(OC)cc4)nc(C#CCCCc4ccccc4)nc32)[C@H](O)[C@@H]1O |
| 47 | – | – | – | – | CCNC(=O)[C@H]1O[C@@H](n2cnc3c(NC(=O)Nc4ccc(S(N)(=O)=O)cc4)ncnc32)[C@H](O)[C@@H]1O |
| 0.33 | 103 | 315 | 10600 | – | CCNC(=O)[C@H]1O[C@@H](n2cnc3c(NC(=O)Nc4cccc(Cl)c4)nc(I)nc32)[C@H](O)[C@@H]1O |
| 1.2 | 90 | 77.6 | 557 | – | CCNC(=O)[C@H]1O[C@@H](n2cnc3c(NC(=O)Nc4cccc(Cl)c4)nc(Cl)nc32)[C@H](O)[C@@H]1O |
| 31 | 4790 | 154 | – | 29 | CCNC(=O)[C@H]1O[C@@H](n2cnc3c(NC(=O)Nc4ccc(OC)cc4)nc(C#Cc4ccccc4)nc32)[C@H](O)[C@@H]1O |
| 2.3 | 247 | 107 | 255 | – | CCCOc1ccc(NC(=O)Nc2ncnc3c2ncn3C2O[C@H](C(=O)NCC)[C@@H](O)[C@H]2O)cc1 (stereo partly specified) |
| 3.5 | – | – | – | – | CCNC(=O)[C@H]1O[C@@H](n2cnc3c(NC(=O)Nc4ccc(C(C)=O)cc4)ncnc32)[C@H](O)[C@@H]1O |
| 1.2 | 22 | 17.1 | 59 | – | CCNC(=O)[C@H]1O[C@@H](n2cnc3c(NC(=O)Nc4ccc(OC)cc4)nc(Cl)nc32)[C@H](O)[C@@H]1O |

Second part, the molecule before the results:

| SMILES | Ratio [1] | Ki (Adenosine receptor A1) [nM] | Ki (Adenosine receptor A3) [nM] | Ki (Adenosine receptor A2a) [nM] | inhibition [2] [%] |
| --- | --- | --- | --- | --- | --- |
| CCNC(=O)[C@H]1O[C@@H](n2cnc3c(NC(=O)c4ccc(-c5ccccc5)cc4)ncnc32)[C@H](O)[C@@H]1O | 0.006 | – | – | – | – |
| CCNC(=O)[C@H]1O[C@@H](n2cnc3c(NC(=O)Nc4nncs4)ncnc32)[C@H](O)[C@@H]1O | 0.037 | – | – | – | – |
| CCCCC#Cc1nc(NC(=O)Nc2cccc(Cl)c2)c2ncn([C@@H]3O[C@H](C(=O)NCC)[C@@H](O)[C@H]3O)c2n1 | 3.5 | 2040 | 581 | 7130 | – |
| CCNC(=O)[C@H]1OC(n2cnc3c(NC(=O)Nc4ccc(NS(=O)(=O)c5cc(C)on5)cc4)ncnc32)[C@H](O)[C@@H]1O (stereo partly specified) | 5.8 | 901 | 155 | 977 | – |
| CCNC(=O)[C@H]1O[C@@H](n2cnc3c(NC(=O)Nc4cccc(Cl)c4)nc(C#CC(O)c4ccccc4)nc32)[C@H](O)[C@@H]1O (stereo partly specified) | 1.2 | 814 | 696 | – | 12 |
| CCNC(=O)[C@H]1O[C@@H](n2cnc3c(NC(=O)NCCc4ccc(OC)c(OC)c4)ncnc32)[C@H](O)[C@@H]1O | 4.3 | 1770 | 411 | 1570 | – |
| CCNC(=O)[C@H]1O[C@@H](n2cnc3c(NC(=O)c4ccccc4Cl)ncnc32)[C@H](O)[C@@H]1O | 1.6 | 1170 | 754 | 1960 | – |
| CCNC(=O)[C@H]1O[C@@H](n2cnc3c(NC(=O)Cc4ccc(Cl)cc4Cl)ncnc32)[C@H](O)[C@@H]1O | 0.095 | – | – | – | – |
| CCNC(=O)[C@H]1O[C@@H](n2cnc3c(NC(=O)Nc4cc(C)on4)ncnc32)[C@H](O)[C@@H]1O | 0.27 | – | – | – | – |
| CCNC(=O)[C@H]1O[C@@H](n2cnc3c(NC(=O)NCc4ccccc4)ncnc32)[C@H](O)[C@@H]1O | 4.5 | – | – | – | – |
| CCNC(=O)[C@H]1O[C@@H](n2cnc3c(NC(=O)c4ccccc4)ncnc32)[C@H](O)[C@@H]1O | 0.3 | – | – | – | – |
| CCNC(=O)[C@H]1O[C@@H](n2cnc3c(NC(=O)N[C@H](C)c4ccccc4)ncnc32)[C@H](O)[C@@H]1O | 27 | – | – | – | – |
| CCNC(=O)[C@H]1O[C@@H](n2cnc3c(NC(=O)Nc4ccc(NS(=O)(=O)c5ncccn5)cc4)ncnc32)[C@H](O)[C@@H]1O | 1.7 | 725 | 405 | 16.8 | – |
| CCNC(=O)[C@H]1O[C@@H](n2cnc3c(NC(=O)NCc4ccco4)ncnc32)[C@H](O)[C@@H]1O | 0.58 | 419 | 713 | 1860 | – |
| CCNC(=O)[C@H]1O[C@@H](n2cnc3c(NC(=O)NCCc4ccccc4)ncnc32)[C@H](O)[C@@H]1O | 0.86 | 129 | 149 | 2650 | – |
| CCNC(=O)[C@H]1O[C@@H](n2cnc3c(NC(=O)N[C@@H](C)c4ccccc4)ncnc32)[C@H](O)[C@@H]1O | 1.7 | – | – | – | – |
| CCNC(=O)[C@H]1O[C@@H](n2cnc3c(N(C(=O)Nc4ccc(Cl)cn4)C(=O)Nc4ccc(Cl)cn4)ncnc32)[C@H](O)[C@@H]1O | 0.13 | – | – | – | – |
| CCNC(=O)[C@H]1O[C@@H](n2cnc3c(NC(=O)Nc4ccc(NS(=O)(=O)c5ccccn5)cc4)ncnc32)[C@H](O)[C@@H]1O | 5.4 | 292 | 54.1 | 740 | – |
| CCNC(=O)[C@H]1O[C@@H](n2cnc3c(NC(=O)Nc4cccc(Cl)c4)nc(C#Cc4ccccc4)nc32)[C@H](O)[C@@H]1O | 2.1 | 1330 | 611 | 48700 | – |
| CNC(=O)[C@H]1OC(n2cnc3c(NCc4cccc(I)c4Cl)ncnc32)[C@H](O)[C@@H]1O (stereo partly specified) | 2500 | 820 | 0.33 | 470 | – |
